Data set [1] addresses T1, casein kinase 1 epsilon (CK1 epsilon) (Homo sapiens, UniProt P49674).
T1 construct: Invitrogen Corporation (as an alternative)
The data set can be described thus: Filter-plate assay of ATP-33P for CK1 epsilon inhibitors (phosphorylation of casein). Format: biochemical. As to conditions: casein substrate, ATP-33P with 10 μM cold ATP, 2 hours at ambient temperature. The method, then: The capacity of the compounds of the invention to inhibit the phosphorylation of casein by casein kinase 1 epsilon and delta may be evaluated according to the procedure described in US 2005/0131012.
Filter-Plate Assay of ATP-^33P for the Screening of CK1 Epsilon Inhibitors:
The effect of the compounds on inhibition of the phosphorylation of casein by the enzyme casein kinase 1 epsilon (CK1 epsilon) is measured, using a casein assay with filtration of ATP-^33P in vitro.
Casein kinase 1 epsilon (0.58 mg/ml) is obtained via fermentation and purification processes performed according to methods that are well known to those skilled in the art, or may also be obtained from Invitrogen Corporation™ (human CK1 epsilon).
The compounds are tested at five different concentrations so as to generate IC50 values, i.e. the concentration at which a compound is capable of inhibiting the enzymatic activity by 50%, or alternatively the percentage of inhibition at a concentration of 10 micromolar.
“U”-bottomed Falcon plates are prepared by placing 5 μL of solutions of the compounds according to the invention at concentrations of 10, 1, 0.1, 0.01 or 0.001 μM in various wells. The solutions of the compounds according to the invention at these various concentrations are prepared by diluting in a test buffer (50 mM Tris, pH 7.5, […], 2 mM DTT and 1 mM EGTA) a stock solution in DMSO at a concentration of 10 mM. Next, 5 μL of dephosphorylated casein are added to a final concentration of 0.2 μg/μL, 20 μl of CK1 epsilon to a final concentration of 3 ng/μl, and 20 μl of ATP-^33P to a final concentration of 0.02 μCi/μl mixed with cold ATP (10 μM final—approximately 2×10^6 CPM per well). The final total test volume per well is equal to 50 μl.
The “U”-bottomed Falcon® test plate mentioned above is vortexed, and then incubated at ambient temperature for 2 hours. After 2 hours, the reaction is stopped by adding an ice-cold solution of 65 μl of ATP (2 mM) prepared in test buffer.
100 μl of the reaction mixture are then transferred from the “U”-bottomed Falcon® plate into Millipore® MAPH filter plates, preimpregnated with 25 μl of ice-cold 100% TCA. […]
The plates are left to dry overnight at ambient temperature. […] The radiation emitted by each well is then measured for 2 minutes in a Packard® Topcount NXT scintillation counter, in which the values of CPM/well are measured.
The percentage inhibition of the capacity of the enzyme to phosphorylate the substrate (casein) is determined for each concentration of compound tested. These inhibition data expressed as percentages are used to calculate the IC50 value for each compound compared with the controls.
The kinetic studies determined the KM value for ATP as being 21 μM in this test system.

The subject of data set [2] is Mper1-luc Rat-1 (P2C4) fibroblasts. The data set can be described thus: Circadian cell assay (mPer1-luciferase reporter, period prolongation). Format: cell-based. The note with it: effective concentration that induced a 1-hour prolongation of the circadian period, interpolated from hyperbolic curve. As to the method: Experimental Protocols for Circadian Cell Assay
Mper1-luc Rat-1 (P2C4) fibroblast cultures were prepared by dividing the cultures every 3-4 days (approximately 10-20% of confluence) on 150 cm^2 degassed polystyrene tissue culture flasks (Falcon® #35-5001) and maintained in growth medium [EMEM (Celigro #10-010-CV); 10% foetal bovine serum (FBS; Gibco #16000-044); and 50 I.U./ml of penicillin-streptomycin (Celigro #30-001-CI)] at 37° C. and under 5% CO2.
Cells obtained from Rat-1 fibroblast cultures at 30-50% of confluence as described above were co-transfected with vectors containing the selection marker for resistance to zeocin for a stable transfection and a luciferase reporter gene controlled by the mPer-1 promoter. After 24 to 48 hours, the cultures were divided on 96-well plates and maintained in growth medium supplemented with 50-100 μg/ml of zeocin (Invitrogen® #45-0430) for 10-14 days. The zeocin-resistant stable transfectants were evaluated for the expression of the reporter by adding 100 μM luciferin (Promega® #E1603®) to the growth medium and by assaying the luciferase activity on a TopCount scintillation counter (Packard Model #C384V00). The Rat-1 cell clones expressing both zeocin resistance and lucerifase activity controlled by mPer1 were serum-shock synchronized with 50% horse serum [HS (Gibco® #16050-122)] and the activity of the circadian reporter was evaluated. The P2C4 clone of Mper1-luc Rat-1 fibroblasts was selected to test the compound. Mper1-luc Rat-1 ([…]) fibroblasts at 40-50% of confluence, obtained according to the protocol described above, were plated out onto 96-well opaque tissue culture plates (Perkin Elmer® #6005680). […]
The period analysis was performed either by determining the interval between the relative light emission minima over several days or by Fourier transform. […] The data were analysed by adjusting a hyperbolic curve to the data expressed as change of period (y-axis) as a function of the concentration of the test compound (x-axis) in the XLfit™ software and the CE Delta (t+1 h) was interpolated from this curve.

The target of data set [3] is T2, human CK1 delta (Homo sapiens, UniProt P48730).
T2 construct: purchased Invitrogen Corporation PV3665
In words: FRET fluorescence test (Z'Lyte kinase assay Kit), peptide substrate SER/THR 11. Format: biochemical. The note with it: peptide substrate 2 μM, ATP at 4 times the KM. The text has this:
The capacity of the compounds of the invention to inhibit the phosphorylation of casein by casein kinase 1 epsilon and delta may be evaluated using a FRET (“Fluorescence Resonance Energy Transfer) fluorescence test with the aid of the “Z'Lyte™ kinase assay Kit” (reference PV3670; Invitrogen Corporation™) according to the manufacturer's instructions.
The casein kinases 1 used are obtained from Invitrogen Corporation (human CK1 epsilon PV3500 and human CK1 delta PV3665).
A peptide substrate, labelled at both ends with a fluorophor donor group (coumarin) and a fluorophor acceptor group (fluorescein) constituting a FRET system is phosphorylated in the presence of ATP by casein kinase 1 epsilon or delta in the presence of increasing concentrations of compounds of the invention.
The mixture is treated with a site-specific protease that specifically cleaves the peptide substrate to form two fluorescent fragments having a large fluorescence emission ratio.
The fluorescence observed is thus related to the capacity of the products of the invention to inhibit the phosphorylation of the peptide substrate by casein kinase 1 epsilon or casein kinase 1 delta.
The compounds of the invention are dissolved at different concentrations starting with a 10 mM stock solution in DMSO diluted in a buffer containing 50 mM HEPS, pH 7.5, 1 m MEGTA, 0.01% Brij-35, 10 mM MgCl2 for casein kinase 1 epsilon and supplemented with Trizma Base (50 mM), pH 8.0, and NaN3 (0.01% final) for casein kinase 1 delta.
The phosphorylation of the peptide substrate SER/THR 11 obtained from Invitrogen Corporation™ is performed at a final concentration of 2 μM. The ATP concentration is 4 times the KM, this value being 2 μM for casein kinase 1 epsilon and 4 μM for casein kinase 1 delta.
The emitted fluorescence is measured at wavelengths of 445 and 520 nm (excitation at 400 nm).

Each structure is given as a SMILES string.

T1 sequence (P49674 whole entry): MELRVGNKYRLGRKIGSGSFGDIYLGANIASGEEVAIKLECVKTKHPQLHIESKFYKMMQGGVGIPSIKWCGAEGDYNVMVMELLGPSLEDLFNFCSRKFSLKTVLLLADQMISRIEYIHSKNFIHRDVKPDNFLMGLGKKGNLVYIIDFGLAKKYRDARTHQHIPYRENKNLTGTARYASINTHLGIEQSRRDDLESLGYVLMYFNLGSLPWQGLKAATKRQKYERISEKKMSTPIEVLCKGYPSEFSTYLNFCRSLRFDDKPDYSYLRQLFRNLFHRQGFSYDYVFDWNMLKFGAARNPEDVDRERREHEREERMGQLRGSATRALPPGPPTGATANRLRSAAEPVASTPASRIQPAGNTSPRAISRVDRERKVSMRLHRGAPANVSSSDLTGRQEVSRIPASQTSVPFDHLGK
T2 sequence (P48730 whole entry): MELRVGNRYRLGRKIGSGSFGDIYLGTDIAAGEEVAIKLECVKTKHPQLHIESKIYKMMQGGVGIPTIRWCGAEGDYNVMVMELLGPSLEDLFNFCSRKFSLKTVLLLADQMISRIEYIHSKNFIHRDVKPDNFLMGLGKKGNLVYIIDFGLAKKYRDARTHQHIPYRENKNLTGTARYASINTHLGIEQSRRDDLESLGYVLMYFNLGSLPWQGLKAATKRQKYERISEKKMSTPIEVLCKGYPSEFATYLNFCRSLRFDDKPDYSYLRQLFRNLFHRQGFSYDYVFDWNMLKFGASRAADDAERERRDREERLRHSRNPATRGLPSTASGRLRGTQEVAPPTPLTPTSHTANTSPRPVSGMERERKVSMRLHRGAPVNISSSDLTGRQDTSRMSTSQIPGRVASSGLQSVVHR

For the compound `Cc1nc2ccc(N3C[C@@H](C)N[C@@H](C)C3)nn2c1-c1ccnc2[nH]ccc12` [Compound 3, 6-[(cis)-3,5-Dimethylpiperazin-1-yl]-2-methyl-3-(1H-pyrrolo[2,3-b]pyridin-4-yl)-imidazo[1,2-b]pyridazine], the IC50 in data set [1] worked out at 303 nM.
`C[C@@H]1CN(c2ccc3nc(-c4ccc(F)cc4)c(-c4ccnc5[nH]ccc45)n3n2)CCN1` [Compound 6, 2-(4-Fluorophenyl)-6-[(3R)-3-methylpiperazin-1-yl]-3-(1H-pyrrolo[2,3-b]pyridin-4-yl)imidazo[1,2-b]pyridazine] showed a melting point of 285 to 287 °C. In data set [2], the “CE Delta (t + 1 h)” value fell in the range of 2 to 3 nM. In data set [1], this compound showed an IC50 of 1 to 2 nM.
In turn, `CC(C)(O)CN1CCN(c2ccc3nc(-c4ccc(F)cc4)c(-c4ccnc5[nH]ccc45)n3n2)CC1` [Compound 20, 1-{4-[2-(4-Fluorophenyl)-3-(1H-pyrrolo[2,3-b]pyridin-4-yl)imidazo[1,2-b]pyridazin-6-yl]piperazin-1-yl}-2-methylpropan-2-ol] yielded a melting point of 273 to 276 °C. For the same compound, the half-maximal inhibitory concentration (IC50) in data set [3] was in the range of 30 to 42 nM.
For `Cc1cc(N2C[C@H]3CN(C)C[C@H]3C2)nn2c(-c3ccnc4[nH]ccc34)c(-c3ccc(F)cc3)nc12` [Compound 29, (Cis)-2-(4-fluorophenyl)-8-methyl-6-(5-methyl-hexahydropyrrolo[3,4-c]pyrrol-2(1H)-yl)-3-(1H-pyrrolo[2,3-b]pyridin-4-yl)imidazo[1,2-b]pyridazine], the IC50 in data set [3] came out at 5 nM.
`Cc1cc(N2C[C@@H]3CCCN(C)[C@@H]3C2)nn2c(-c3ccnc4[nH]ccc34)c(-c3ccc(F)cc3)nc12` [Compound 33, 2-(4-Fluorophenyl)-8-methyl-6-((4aS,7aS)-1-methyloctahydro-6H-pyrrolo[3,4-b]pyridin-6-yl)-3-(1H-pyrrolo[2,3-b]pyridin-4-yl)imidazo[1,2-b]pyridazine]: the melting point was greater than 260 °C.
With `CN1C[C@@H]2C[C@H]1CN2c1ccc2nc(-c3ccc(F)cc3)c(-c3ccnc4[nH]ccc34)n2n1` [Compound 34, 2-(4-Fluorophenyl)-6-((1S,4S)-5-methyl-2,5-diazabicyclo[2.2.1]hept-2-yl)-3-(1H-pyrrolo[2,3-b]pyridin-4-yl)imidazo[1,2-b]pyridazine], the melting point was 148 to 168 °C.
In the case of `Fc1ccc(-c2nc3ccc(N4CCC5(CCCNC5)CC4)nn3c2-c2ccnc3[nH]ccc23)cc1` [Compound 35, 9-[2-(4-Fluorophenyl)-3-(1H-pyrrolo[2,3-b]pyridin-4-yl)imidazo[1,2-b]pyridazin-6-yl]-2,9-diazaspiro[5.5]undecane], in data set [2], the “CE Delta (t + 1 h)” value was determined as 305 nM. Moreover, the half-inhibitory concentration (IC50) in data set [1] was 6 nM.

(Values after patent US8546395B2, “6-cycloamino-3-(1H-pyrrolo[2,3-b]pyridin-4-yl)imidazo[1,2-b]pyridazine derivatives, preparation thereof and therapeutic use thereof” (Sanofi, priority 2008, dated 2013).)
